The values below come from PMC11267380, “USP25 Elevates SHLD2‐Mediated DNA Double‐Strand Break Repair and Regulates Chemoresponse in Cancer” (Advanced Science, 2024).

Structures are written as SMILES.

This experiment deals with USP25 phosphorylation at SQ/TQ motif in HEK293T cells. As to the kind of experiment: USP25 phosphorylation (p-SQ/TQ) after IR, IP and immunoblot. As to conditions: IR (10 Gy), Ku55933 (25 µM) for 2 h pretreatment or phosphatase treatment of immunoprecipitated USP25. The class given is cell-based. The protocol:
Figure 4 Regulation of the DDR signaling by USP25. a) HEK293T cells were left untreated or treated with IR (10 Gy) or 5‐Fu (20 uM). USP25 was immunoprecipitated and immunoblotted with phospho‐SQ/TQ (p‐SQ/TQ). b) HEK293T cells were pretreated with Ku55933 (25 µM) for 2 h followed by treatment with IR(10 Gy). After 1 h, USP25 was immunoprecipitated, left untreated, or treated with phosphatase and immunoblotted with p‐SQ/TQ. c) HEK293T cells transfected with USP25^WT and indicated constructs were left treated with IR(10 Gy). USP25 was immunoprecipitated and immunoblotted with p‐SQ/TQ. d) USP25 knockdowm U2OS cells rescued with USP25WT or USP25T523A were treated with IR (2 Gy), and co‐localization USP25 with γH2AX was detected by immunofluorescence. n>80 in each group. e) HEK293T cells were left untreated or treated with 5‐Fu (20 uM). […] The interaction USP25 and MDC1 deletions was detected. g) HEK293T cells transfected with USP25^WT or USP25^T523A were treated with IR, and cell lysates were incubated with GST or GST‐MDC1‐BRCT in vitro. The interaction USP25 and MDC1‐BRCT was detected. h) Non‐phosphorylated or phosphorylated Thr523 peptide was conjugated to beads and incubated with purified GST‐MDC1‐BRCT domain in buffer. […]
Background: Immunoblotting shows a protein as a band on a membrane.

Turning to `O=c1cc(-c2cccc3c2Sc2ccccc2S3)oc(N2CCOCC2)c1` [Ku55933], the USP25 phosphorylation entry is “abolished”.
